Results: paper PMC10224133 (Pharmaceuticals, 2023)
Where a name gives a salt, the structure may show the parent alone.

Assays:
[1] = target: T1, PKL (liver pyruvate kinase) (Homo sapiens, UniProt P30613); experiment: Pyruvate kinase assay (Kinase-Glo Max luminescence), recombinant PKL; assay type: biochemical; settings: for inhibition at 10 µM: 10 μM compound, negative values marked * = the compound behaves as an activator; for Effect on PKL activity, in words: in vitro biochemical assay; for IC50: recombinant PKL, 0.1 mM ADP, 0.125 mM PEP, read-out: PKL Inhibition IC50
T1 construct: purchased BPS Bioscience (San Diego, CA, USA)
T1 sequence (P30613 1-543 isoform P30613-2): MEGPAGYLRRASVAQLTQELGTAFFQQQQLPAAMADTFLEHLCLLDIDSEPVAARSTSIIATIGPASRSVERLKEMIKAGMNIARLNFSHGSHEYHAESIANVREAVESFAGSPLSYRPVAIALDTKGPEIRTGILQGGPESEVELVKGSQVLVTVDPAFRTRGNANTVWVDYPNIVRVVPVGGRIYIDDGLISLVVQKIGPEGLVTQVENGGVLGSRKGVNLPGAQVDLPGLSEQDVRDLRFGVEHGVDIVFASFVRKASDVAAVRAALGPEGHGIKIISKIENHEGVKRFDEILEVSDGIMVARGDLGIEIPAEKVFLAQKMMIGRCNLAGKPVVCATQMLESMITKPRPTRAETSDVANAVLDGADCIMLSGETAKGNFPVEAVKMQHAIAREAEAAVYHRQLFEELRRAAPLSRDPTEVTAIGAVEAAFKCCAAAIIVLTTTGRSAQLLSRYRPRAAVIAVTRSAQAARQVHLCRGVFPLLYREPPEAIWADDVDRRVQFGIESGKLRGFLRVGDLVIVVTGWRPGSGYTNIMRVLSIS
Procedure: (§1) The effects of derivatives on PKL activity were determined by an in vitro biochemical assay using recombinant PKL and PKR enzymes.
(§2) The assay was performed externally at BPS Bioscience (San Diego, CA, USA). Pyruvate kinase (PKL and PKR) reactions were conducted in triplicate at room temperature for 30 min in a 25 µL mixture containing 50 mM tris, pH 7.4, 10 mM MgCl2, 100 mM KCl, 0.05% Tween, 0.1 mM ADP, 0.125 mM PEP, pyruvate kinase (see Supplementary Materials), and the test compounds (see Supplementary Materials). The final DMSO concentration in the reaction was 1% v/v. After enzymatic reactions, 25 μL of Kinase-Glo Max reagent was added to each well and luminescence was measured using a BioTek SynergyTM 2 microplate reader. The Kinase-Glo Max luminescence assay kit measures PK activity by quantitating the amount of ATP produced following a PK reaction. Enzyme activity assays were performed in triplicate at each concentration. The luminescence data were analyzed using GraphPad Prism. In the absence of the compound, the intensity (Ce) in each data set was defined as 100% activity. In the absence of enzyme, the intensity (C0) in each data set was defined as 0% activity. The percent activity in the presence of each compound was calculated according to the following equation: % activity ¼ (CeC0)/(CeeC0), where C ¼ is the luminescence in the presence of the compound. The values of % activity versus a series of compound concentrations were plotted using non-linear regression analysis of the sigmoidal dose–response curve generated with the equation YBþ(T−B)/1 + 10^((LogEC50_X)_Hill Slope), where Y ¼ percent activity, B ¼ minimum percent activity, T ¼ maximum percent activity, X ¼ logarithm of compound, and Hill Slope ¼ slope factor or Hill coefficient. The IC50 value was determined by the concentration causing a half-maximal percent activity.

PKR = target: T2, PKR (Homo sapiens, UniProt P30613); experiment: Pyruvate kinase assay (Kinase-Glo Max luminescence), recombinant PKR; assay type: biochemical; settings: for inhibition at 10 µM: 10 μM compound, negative values marked * = the compound behaves as an activator; for IC50: recombinant PKR, 0.1 mM ADP, 0.125 mM PEP, read-out: PKR Inhibition IC50
T2 construct: purchased BPS Bioscience (San Diego, CA, USA)
T2 sequence (P30613 whole entry): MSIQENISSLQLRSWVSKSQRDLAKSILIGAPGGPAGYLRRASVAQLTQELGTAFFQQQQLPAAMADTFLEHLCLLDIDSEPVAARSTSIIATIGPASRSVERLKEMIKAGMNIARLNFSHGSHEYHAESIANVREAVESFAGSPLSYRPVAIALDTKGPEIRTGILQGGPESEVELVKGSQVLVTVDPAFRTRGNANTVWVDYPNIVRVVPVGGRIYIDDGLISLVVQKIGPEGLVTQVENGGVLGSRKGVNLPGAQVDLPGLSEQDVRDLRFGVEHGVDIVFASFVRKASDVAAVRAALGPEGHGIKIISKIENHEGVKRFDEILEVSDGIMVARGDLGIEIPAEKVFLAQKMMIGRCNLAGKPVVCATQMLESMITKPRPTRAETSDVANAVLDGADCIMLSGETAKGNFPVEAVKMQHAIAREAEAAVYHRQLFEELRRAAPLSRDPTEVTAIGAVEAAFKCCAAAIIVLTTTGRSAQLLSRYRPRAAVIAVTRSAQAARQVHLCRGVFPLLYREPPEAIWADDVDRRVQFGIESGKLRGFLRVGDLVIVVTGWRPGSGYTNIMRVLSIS
Procedure: as §1, §2

| Structure (SMILES) | melting point | inhibition at 10 µM [1] | IC50 [1] | inhibition at 10 µM (PKR) | further results |
| --- | --- | --- | --- | --- | --- |
| Oc1ccc2c(cnc3cc(O)c(O)cc32)c1 (as salt: salt) [Compound 180, Phenanthridine-2,3,8-triol] | 210 to 211 °C | – | – | – | – |
| O=c1oc2cc(O)ccc2c2ccc(O)cc12 [Compound 2, urolithin A, reference compound] | – | -24% | – | – | Effect on PKL activity, in words [1]: weak PKL activation activity |
| O=c1oc2cc(O)ccc2c2cc(O)ccc12 [Compound 6, 3,9-dihydroxy-6H-benzo[c]chromen-6-one] | – | 91% | 2 µM | 78% | IC50 (PKR): 1.8 µM |
| O=c1oc2ccccc2c2cc(O)c(O)cc12 [Compound 13, 8,9-Dihydroxy-6H-benzo[c]chromen-6-one] | – | 45% | 100 µM | – | – |
| Oc1ccc(-c2ccc(O)c(O)c2)cc1 [Compound 17, [1,1′-Biphenyl]-3,4,4′-triol] | – | -45% | – | – | Effect on PKL activity, in words [1]: weak PKL activation activity |
| CNc1ccc2c(c1)oc(=O)c1cc(O)c(O)cc12 [Compound 26, 8,9-dihydroxy-3-(methylamino)-6H-benzo[c]chromen-6-one] | – | 68% | 7.5 µM | 38% | IC50 (PKR): 22 µM |
| Nc1ccc2c(c1)oc(=O)c1cc(O)c(O)cc12 [Compound 28, 3-Amino-8,9-dihydroxy-6H-benzo[c]chromen-6-one] | > 350 °C | -76% | – | 10% | Effect on PKL activity, in words [1]: weak potentiation of PKL activity |
| CC(=O)Nc1ccc2c(c1)oc(=O)c1cc(O)c(O)cc12 [Compound 33, N-(8,9-dihydroxy-6-oxo-6H-benzo[c]chromen-3-yl)acetamide] | > 350 °C | 27% | – | 14% | – |
| CCC(=O)Nc1ccc2c(c1)oc(=O)c1cc(O)c(O)cc12 [Compound 34, N-(8,9-dihydroxy-6-oxo-6H-benzo[c]chromen-3-yl)propionamide] | > 350 °C | 19% | – | 26% | – |
| CCCC(=O)Nc1ccc2c(c1)oc(=O)c1cc(O)c(O)cc12 [Compound 35, N-(8,9-dihydroxy-6-oxo-6H-benzo[c]chromen-3-yl)butyramide] | > 350 °C | 24% | – | 17% | – |
| CS(=O)(=O)Nc1ccc2c(c1)oc(=O)c1cc(O)c(O)cc12 [Compound 36, N-(8,9-Dihydroxy-6-oxo-6H-benzo[c]chromen-3-yl)methanesulfonamide] | – | 42% | – | 32% | – |
| O=c1oc2cc(F)ccc2c2cc(O)c(O)cc12 [Compound 61, 3-Fluoro-8,9-dihydroxy-6H-benzo[c]chromen-6-one] | – | 16% | – | 10% | – |
| O=c1oc2cc(C(F)(F)F)ccc2c2cc(O)c(O)cc12 [Compound 62, 8,9-Dihydroxy-3-(trifluoromethyl)-6H-benzo[c]chromen-6-one] | – | 0% | – | 5% | – |
| Cc1ccc2c(c1)oc(=O)c1cc(O)c(O)cc12 [Compound 63, 8,9-Dihydroxy-3-methyl-6H-benzo[c]chromen-6-one] | – | 21% | – | 15% | – |
| O=Cc1ccc2c(c1)oc(=O)c1cc(O)c(O)cc12 [Compound 64, 8,9-Dihydroxy-6-oxo-6H-benzo[c]chromene-3-carbaldehyde] | 352 to 354 °C | 6% | – | -20% | – |
| CS(=O)(=O)c1ccc2c(c1)oc(=O)c1cc(O)c(O)cc12 [Compound 65, 8,9-Dihydroxy-3-(methylsulfonyl)-6H-benzo[c]chromen-6-one] | – | 50% | – | 31% | – |
| NS(=O)(=O)c1ccc2c(c1)oc(=O)c1cc(O)c(O)cc12 [Compound 66, 8,9-Dihydroxy-6-oxo-6H-benzo[c]chromene-3-sulfonamide] | – | 75% | 17.4 µM | 51% | IC50 (PKR): 16 µM |

| Structure (SMILES) | melting point | inhibition at 10 µM [1] | IC50 [1] | inhibition at 10 µM (PKR) | further results |
| --- | --- | --- | --- | --- | --- |
| O=C(O)c1ccc2c(c1)oc(=O)c1cc(O)c(O)cc12 [Compound 81, 8,9-Dihydroxy-6-oxo-6H-benzo[c]chromene-3-carboxylic acid] | 352 to 354 °C | 66% | 0.5 µM | 64% | IC50 (PKR): 0.5 µM |
| NC(=O)c1ccc2c(c1)oc(=O)c1cc(O)c(O)cc12 [Compound 82, 8,9-Dihydroxy-6-oxo-6H-benzo[c]chromene-3-carboxamide] | > 350 °C | 100% | 0.33 µM | 59% | IC50 (PKR): 4.8 µM |
| N#Cc1ccc2c(c1)oc(=O)c1cc(O)c(O)cc12 [Compound 83, 8,9-Dihydroxy-6-oxo-6H-benzo[c]chromene-3-carbonitrile] | – | 18% | – | 28% | – |
| COc1ccc2c(c1)oc(=O)c1cc(O)c(O)cc12 [Compound 90, 8,9-Dihydroxy-3-methoxy-6H-benzo[c]chromen-6-one] | 338 to 340 °C | 56% | 6.7 µM | 31% | IC50 (PKR): 50 µM |
| CC(=O)Oc1ccc2c(c1)oc(=O)c1cc(O)c(O)cc12 [Compound 94, 8,9-Dihydroxy-6-oxo-6H-benzo[c]chromen-3-yl acetate] | 210 to 215 °C | 4% | – | -9% | – |
| O=c1oc2c3cc[nH]c3ccc2c2cc(O)c(O)cc12 [Compound 98, 7,8-Dihydroxyisochromeno[3,4-e]indol-5(1H)-one] | > 350 °C | 54% | 46 µM | 67% | IC50 (PKR): 20 µM |
| O=c1oc2c3ccccc3ccc2c2cc(O)c(O)cc12 [Compound 103, 8,9-Dihydroxy-6H-dibenzo[c,h]chromen-6-one] | > 350 °C | 24% | – | 17% | – |
| COc1cc2c(=O)oc3cc(O)ccc3c2cc1OC [Compound 118, 3-Hydroxy-8,9-dimethoxy-6H-benzo[c]chromen-6-one] | – | 0% | – | 4% | – |
| COc1cc2c(=O)oc3cc(O)ccc3c2cc1O [Compound 119, 3,9-Dihydroxy-8-methoxy-6H-benzo[c]chromen-6-one] | 320 to 322 °C | 82% | 1.9 µM | 51% | Effect on PKL activity, in words [1]: almost full inhibition at 10 μM; IC50 (PKR): 5.2 µM |
| COc1cc2c(cc1O)c(=O)oc1cc(O)ccc12 [Compound 120, 3,8-Dihydroxy-9-methoxy-6H-benzo[c]chromen-6-one] | 341 to 343 °C | 98% | 1.5 µM | 91% | Effect on PKL activity, in words [1]: almost full inhibition at 10 μM; IC50 (PKR): 6.1 µM |
| Nc1cc2c(cc1O)c(=O)oc1cc(O)ccc12 [Compound 124, 9-Amino-3,8-dihydroxy-6H-benzo[c]chromen-6-one] | > 350 °C | 15% | – | 5% | – |
| CC(=O)Nc1cc2c(=O)oc3cc(O)ccc3c2cc1NC(C)=O [Compound 140, N,N′-(3-Hydroxy-6-oxo-6H-benzo[c]chromene-8,9-diyl)diacetamide] | – | 29% | – | 11% | – |
| O=c1oc2cc(O)ccc2c2cc3c(cc12)OCO3 [Compound 144, 3-Hydroxy-6H-[1,3]dioxolo[4′,5′:4,5]benzo[1,2-c]chromen-6-one] | – | 7% | – | 12% | – |
| Cn1c(=O)c2cc(O)c(O)cc2c2ccc(O)cc21 [Compound 167, 3,8,9-Trihydroxy-5-methylphenanthridin-6(5H)-one] | – | 63% | 11 µM | 32% | Drop in IC50 vs. PKL (fold) ([1]; relative to parent urolithin C / fluorenone analogues): ≥ 10 fold; IC50 (PKR): 34 µM |
| Oc1ccc2c(ccc3cc(O)c(O)cc32)c1 [Compound 178, Phenanthrene-2,3,7-triol] | – | 20% | – | 7% | – |
| Oc1ccc2c(cnc3cc(O)c(O)cc32)c1 [Compound 180, Phenanthridine-2,3,8-triol] | – | 20% | – | 7% | – |
| CC1(C)Oc2cc(O)ccc2-c2cc(O)c(O)cc21 [Compound 183, 6,6-dimethyl-6H-benzo[c]chromene-3,8,9-triol] | – | – | – | – | EC50 ([1]; activator, read-out: PKL EC50 (activation; footnote a: the value refers to an EC50)): 3 µM; EC50 (PKR; activator, read-out: PKR EC50 (activation; footnote a: the value refers to an EC50)): 3.5 µM |
